Results reported in article PMC11811597, “Phenomics‐Based Discovery of Novel Orthosteric Choline Kinase Inhibitors” (Angewandte Chemie (International Ed. in English), 2025).
“Also recorded” adds a separate entry of the source.

How the values were obtained:
PWP1 = assay: Competitive affinity-based chemoproteomics (UNC0965 matrix), PBMC cell extract; type: binding, human; details: 20 µM competitor, n=2
Description: (§1) described.[2] Lysates were precleared with bead slurry (100 μL) for 30 min at 4 °C and then treated with UNC0638 or UNC0737 (20 μM) or DMSO control for 30 min at 4 °C followed by incubation with affinity matrix for 2 h at 4 °C. Affinity matrices were washed with buffer A (5 mL) and proteins eluted with 100 μL of 2x Laemmli sample buffer, 100 mM DTT, in PBS and heating for 10 min at 90 °C.
(§2) Eluents (70 µL) were diluted in 0.1 M Tris (pH 7.8) to 200 µL, reduced with 5 mM DTT for 30 min at RT, and alkylated with 20 mM iodoacetamide for 30 min at RT in the dark. Proteins were precipitated by sequential addition of MeOH (600 µL), CHCl3 (150 µL) and H2O (450 µL), pelleted (17,000 × g, 5 min), washed with further MeOH (2 × 600 µL), and re-pelleted. Air dried pellets were resuspended in 50 μL 6 M urea (pH 7.8) by vortexing and then diluted with 250 μL H2O before adding 1 µg trypsin for overnight incubation at 37 °C. The digests were acidified with FA (1% v/v final concentration), desalted using SOLA HRP SPE Cartridges (Thermo Fisher), eluted with 69% v/v MeCN, 0.1% v/v FA in H2O (600 μL) and dried in vacuo. Dried peptides were stored at -20 °C before resuspension in 2% v/v MeCN, 0.1% v/v FA in H2O (20 μL) for LC-MS/MS analysis.
(§3) LC-MS/MS Data Acquisition
(§4) Digested samples were analysed by nano-UPLC–MS/MS using a Dionex Ultimate 3000 nano UPLC fitted with an EASY spray column (75 μm × 500 mm, 2 μm particle size, Thermo Scientific), coupled to an Orbitrap Q Exactive instrument. A 60 min gradient of 0.1% (v/v) formic acid in 5 % (v/v) DMSO to 0.1% (v/v) formic acid with 35% (v/v) acetonitrile in 5 % (v/v) DMSO at a flow rate of 250 nL min−1 was used. The instrument was operated in a data-dependant mode, with survey scans acquired at a resolution of 70,000 at 200 m/z and the 15 most abundant precursors selected for HCD fragmentation with an AGC target of […] ions.
(§5) Raw data was processed using MaxQuant[3] version 2.0.1.0 and the reference complete human proteome FASTA file (UniProt, downloaded 05.08.21). Label Free Quantification (LFQ) and Match Between Runs were selected; Cysteine carbamidomethylation was selected as a fixed modification, and methionine oxidation and asparagine deamidation as variable modifications. Default settings for identification and quantification were used. Specifically, a minimum peptide length of 7, a maximum of 2 missed cleavage sites, and a maximum of 5 labelled amino acids per peptide were allowed.
(§6) Through selection of the ‘trypsin/P’ general setting, peptide bond cleavage at arginine or lysine (followed by any amino acid) was considered during in silico digest of the reference proteome. […]
(§7) mode selected for both identification and quantification of proteins (razor peptides are uniquely assigned to protein groups and not to individual proteins).

PRCP = assay: as above; type: binding, human; details: 20 µM competitor, n=2
Description: as §1, §2, §3, §4, §5, §6, §7

CHKA [1] = biological target: T1, CHKA (Homo sapiens, UniProt P35790); assay: as above; type: binding; set-up: endogenous in cells; details: 20 µM competitor
Description: as §1, §2, §3
Digested samples were analysed by nano-UPLC–MS/MS using a Dionex Ultimate 3000 nano UPLC fitted with an EASY spray column (75 μm × 500 mm, 2 μm particle size, Thermo Scientific), coupled to an Orbitrap Q Exactive instrument. […]
Raw data was processed using MaxQuant[3] version 2.0.1.0 and the reference complete human proteome FASTA file (UniProt, downloaded 05.08.21). Label Free Quantification (LFQ) and Match Between Runs were selected; Cysteine carbamidomethylation was selected as a fixed modification, and methionine oxidation and asparagine deamidation as variable modifications. Default settings for identification and quantification were used. […]
as §7

CHKA [2] = biological target: T1, CHKA; assay: PISA thermal profiling, K562 cell lysates; type: binding; set-up: endogenous in cells; details: 30 µM; for stabilisation of CHKA (PISA): K562 cell lysates; for effect_CETSA_Lysate (PISA amplitude), CHKA: K562 lysate, 15 min, n=3
Description: (§8) Experiments were performed as described earlier with few modifications. In short, 3 replicates of intact HepG2 cells were treated with 30 µM UNC0638, […] or corresponding volume of DMSO in medium-free experimental buffer for 60 min at 37 °C with end-over-end rotation. For lysates: Washed K562 cells were resuspended in medium-free experimental buffer and lysed by three freeze-thaw cycles. Lysate was centrifugated 20,000 × g for 20 min at 4 °C to remove cell debris. The cleared lysate was treated with 30 µM UNC0638, UNC0373 or corresponding volume of DMSO for 15 min at RT with end-over-end rotation. Each treated cell suspension or lysate was divided into 12 aliquots and subjected to a 12-step heat gradient from 44 °C to 64 °C. All the temperature points were pooled together to form […] individual samples. Soluble fraction was separated from precipitated proteins […]
(§9) by centrifugation at 30,000 × g for 20 min at 4 °C. The soluble fractions were collected to fresh tubes and further processed to be analysed with mass spectrometry. Sample handling, TMT labelling, LC-MS/MS analysis, protein identification and data analysis was performed as described earlier.[12] […]
(§10) Figure S3: Western blot of elution fractions after chemical pulldown with UNC0965 in MCF7 cell extract pre-incubated with indicated compounds (20 μM) or DMSO.
(§11) Figure S4: PISA thermal profiling results in K562 cell lysates. A) Volcano plots of UNC0638 and […]
(§12) Dashed lines represent amplitude > 0.05, < - 0.05 and log10(adjusted p-values) > 2 (two-sided two sample t-test, Benjamini-Hochberg corrected, n = 3).
(§13) 6,924 proteins were identified. B) UNC0737 stabilises CHKA stronger than UNC0638. […]

RBBP8NL = biological target: T2, RBBP8NL (Homo sapiens, UniProt Q8NC74); assay: PISA thermal profiling, K562 cell lysates; type: binding; details: K562 lysate, 30 µM, 15 min, n=3
T2 construct: endogenous in cells; host or cells: K562 cell lysate
Description: as §8, §9, §10, §11, §12, §13

HNRNPD = biological target: T3, HNRNPD (Homo sapiens, UniProt Q14103); assay: PISA thermal profiling, K562 cell lysates; type: binding; details: K562 lysate, 30 µM, 15 min, n=3
T3 construct: endogenous in cells; host or cells: K562 cell lysate
Description: as §8, §9, §10, §11, §12, §13

R3HCC1L = biological target: T4, R3HCC1L (Homo sapiens, UniProt Q7Z5L2); assay: PISA thermal profiling, K562 cell lysates; type: binding; details: K562 lysate, 30 µM, 15 min, n=3
T4 construct: endogenous in cells; host or cells: K562 cell lysate
Description: as §8, §9, §10, §11, §12, §13

[3] = system: human peripheral blood mononuclear cells (PBMC); assay: B-cell assay with stimulated PBMCs from healthy donors; type: cell-based; details: for cell viability (live CD19+ B cells, flow cytometry) / stimulation‐induced B cell maturation (CD27+IgD− memory B cells of live CD19+ B cells): 6 days of culture; for IgG secretion: stimulated PBMCs from healthy human blood donors, 6 days, dose-dependent; for stimulation‐induced B cell maturation (CD27+IgD− memory B cells of live CD19+ B cells): three healthy donors
Description: […]

T1 sequence (P35790 whole entry): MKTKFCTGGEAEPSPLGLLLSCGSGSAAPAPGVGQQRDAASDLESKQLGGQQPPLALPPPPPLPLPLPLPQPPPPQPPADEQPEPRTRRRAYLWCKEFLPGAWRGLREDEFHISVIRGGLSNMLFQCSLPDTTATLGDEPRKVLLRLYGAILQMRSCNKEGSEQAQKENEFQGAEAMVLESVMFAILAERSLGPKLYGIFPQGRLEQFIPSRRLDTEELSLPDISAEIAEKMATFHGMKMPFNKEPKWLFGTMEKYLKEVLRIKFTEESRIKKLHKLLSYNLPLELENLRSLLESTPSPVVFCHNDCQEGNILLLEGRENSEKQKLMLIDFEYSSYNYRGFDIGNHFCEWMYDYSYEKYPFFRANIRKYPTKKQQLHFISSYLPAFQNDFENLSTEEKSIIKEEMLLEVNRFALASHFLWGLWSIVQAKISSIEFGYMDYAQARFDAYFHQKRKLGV
T2 sequence (Q8NC74 whole entry): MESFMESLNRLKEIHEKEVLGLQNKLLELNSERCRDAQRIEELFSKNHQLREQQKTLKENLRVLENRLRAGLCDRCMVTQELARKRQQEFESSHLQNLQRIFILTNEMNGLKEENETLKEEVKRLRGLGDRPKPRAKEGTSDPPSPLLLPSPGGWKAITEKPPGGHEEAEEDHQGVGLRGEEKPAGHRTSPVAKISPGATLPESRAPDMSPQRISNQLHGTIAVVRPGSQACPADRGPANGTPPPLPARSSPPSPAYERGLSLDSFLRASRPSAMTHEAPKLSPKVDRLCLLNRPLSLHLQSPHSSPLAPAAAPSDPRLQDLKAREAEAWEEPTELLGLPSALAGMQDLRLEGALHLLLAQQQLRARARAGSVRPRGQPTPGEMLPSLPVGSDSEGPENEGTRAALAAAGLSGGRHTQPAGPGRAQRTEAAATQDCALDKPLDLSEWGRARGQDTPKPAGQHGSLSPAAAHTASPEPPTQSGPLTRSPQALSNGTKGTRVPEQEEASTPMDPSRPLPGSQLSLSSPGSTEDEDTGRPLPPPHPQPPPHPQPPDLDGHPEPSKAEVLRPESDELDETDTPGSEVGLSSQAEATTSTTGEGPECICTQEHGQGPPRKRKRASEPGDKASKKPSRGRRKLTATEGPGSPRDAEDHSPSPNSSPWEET
T3 sequence (Q14103 whole entry): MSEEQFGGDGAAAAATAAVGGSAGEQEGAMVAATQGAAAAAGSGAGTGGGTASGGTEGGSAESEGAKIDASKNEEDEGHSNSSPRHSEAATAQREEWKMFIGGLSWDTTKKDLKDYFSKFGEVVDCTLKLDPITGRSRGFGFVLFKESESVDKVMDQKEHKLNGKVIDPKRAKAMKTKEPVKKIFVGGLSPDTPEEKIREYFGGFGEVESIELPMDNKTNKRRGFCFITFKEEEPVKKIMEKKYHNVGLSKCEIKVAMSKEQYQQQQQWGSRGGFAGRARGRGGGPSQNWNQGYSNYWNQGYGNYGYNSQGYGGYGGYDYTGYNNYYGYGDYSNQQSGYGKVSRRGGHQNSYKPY
T4 sequence (Q7Z5L2 1-184 isoform Q7Z5L2-3): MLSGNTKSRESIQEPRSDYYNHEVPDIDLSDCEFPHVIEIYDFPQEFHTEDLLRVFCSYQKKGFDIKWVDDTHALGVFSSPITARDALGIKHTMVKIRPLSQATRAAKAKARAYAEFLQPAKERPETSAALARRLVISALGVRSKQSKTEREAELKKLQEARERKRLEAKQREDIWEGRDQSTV

Row | Compound | FC vs DMSO (log2 competition), PWP1 (PWP1) | FC vs DMSO (log2 competition), PRCP (PRCP) | competition for CHKA binding to affinity matrix (CHKA [1]) | stabilisation of CHKA (PISA) (CHKA [2]) | effect_CETSA_Lysate (PISA amplitude), CHKA (CHKA [2]) | effect_CETSA_Lysate (PISA amplitude), RBBP8NL (RBBP8NL) | effect_CETSA_Lysate (PISA amplitude), HNRNPD (HNRNPD) | effect_CETSA_Lysate (PISA amplitude), R3HCC1L (R3HCC1L) | cell viability (live CD19+ B cells, flow cytometry) [3] | IgG secretion [3] | stimulation‐induced B cell maturation (CD27+IgD− memory B cells of live CD19+ B cells) [3]
1 | COc1cc2c(NC3CCN(C(C)C)CC3)nc(C3CCCCC3)nc2cc1OCCCN1CCCC1 [UNC0638] | -2.002 | -3.268 | sole shared target | selective stabilisation of CHKA | 0.202 | 0.217 | 0.387 | 0.239 | not markedly affected | reduction of IgG secretion | reduce
2 | COc1cc2c(N(C)C3CCN(C(C)C)CC3)nc(C3CCCCC3)nc2cc1OCCCN1CCCC1 [UNC0737] | -0.1275 | -0.4338 | sole shared target; also recorded: reduced stronger | selective stabilisation of CHKA | 0.504 | 0.393 | 0.605 | 0.415 | not markedly affected | reduction of IgG secretion | reduce
